From US20090054376A1, “BENZOFURAN DERIVATIVES WITH THERAPEUTIC ACTIVITIES” (Pharmos Corporation, priority 2005, published 2009)
Read-outs that look alike come from different tables or passages of the source.

Assays:
COX-2 = assay: Gene expression in LPS activated RAW 264.7 macrophages, COX-2; format: cell-based, mouse; conditions: RAW 264.7, 10 μM, LPS 1 μg/ml, RNA 3 hrs after activation, vs vehicle treated activated cells
Procedure: RAW 264.7 macrophages, a mouse cell line (ATCC # TIB 71), were grown in Dulbecco's modified Eagle's medium (DMEM) with 4 mM L-glutamine adjusted to contain 1.5 g/L sodium bicarbonate, 4.5 g/L glucose, and 10% heat inactivated fetal bovine serum. Cells were grown in tissue culture flasks and seeded at appropriate density into 6 wells tissue culture plates. Four million Raw cells in half a milliliter were stimulated with 1 μg/ml LPS E. coli 055:B5 (DIFCO Laboratories). The mouse macrophages were pre-treated for one hour with controls or 10 μM of test compounds, and later on activated with LPS. RNA samples were extracted from the cells 3 hrs after activation and gene expression levels were analyzed by real-time RT-PCR. In parallel, supernatants were collected and secretion of inflammatory mediators was analyzed using ELISA techniques according to the instructions of the kit manufacturer.
Total RNA is prepared using SV total RNA isolation system (Promega). The cells were homogenized in lysis buffer. The lysates were transferred to an RNA isolation column, treated with DNAse, washed and eluted according to kit instructions. RNA concentrations were determined using GeneQuant II (Pharmacia-Amersham). Complementary DNA (cDNA) was synthesized from total RNA using […] II reverse transcriptase (Life Technologies). 2 μg of total RNA were combined with an oligo (dT)15 primer, 0.5 mM dNTP mix, 8 units of reverse transcriptase and other reaction components up to a final volume of 20 μl, according to the kit instructions. The reaction mixture was incubated at 42° C. for 45 min and inactivated at 70° C. for 15 minutes. Quantitative real-time RT-PCR included 1 μl of the cDNA, 300 nM of the appropriate forward and reverse primers (according to the gene monitored) and 7.5 μl of the reaction mix containing buffer, nucleotides, Taq polymerase and SYBER green (SYBER Green master mix, Applied Biosystems), in a total reaction volume of 15 μl. Gene amplification was obtained using the GeneAmp 5700 sequence detection system (Applied Biosystems). Amplification included one stage of 10 minutes at 95° C. followed by 40 cycles of a 2-steps loop: 20 seconds at 95° C., and 1 minute at 60° C. During each annealing step, the amount of the amplified product was measured by the fluorescence of the double strand DNA binding dye, SYBER Green. The cycle of threshold (CT), representing the PCR cycle at which an increase in fluorescence above a baseline signal can be first detected, was determined for each product. A delay of one PCR cycle in the CT is translated into a two-fold decrease in starting template molecules and vice versa. The changes in the CT of the specific gene product were normalized to the changes in the CT of housekeeping cyclophilin or GAPDH as reference genes. Results were expressed as fold increase of gene expression in treated or untreated activated cells above the resting cells, after normalization to cyclophilin or GAPDH. Cells were also tested for viability to confirm that any effect on gene expression was indeed due to modulation of transcription of a specific target and not to cytoxicity.
Results were further expressed as percent inhibition of gene expression in compound treated activated cells over vehicle “treated” activated cells. Since the modulation of IL-10 and TNF-α gene expression by the compounds of the invention is relatively minor, it is not reported. […] Inhibition above 50% was considered significant.

[1] = system: carrageenan induced inflammatory pain and paw edema; assay: Inflammatory pain and paw edema induced by carrageenan; format: in vivo, Male Sprague Dawley rats; conditions: for inhibition in vivo at 3 mg/kg / inhibition in vivo at 10 mg/kg: Rattus norvegicus, ip; for inhibition in vivo at 3 mg/kg: 3 mg/kg i.p. (one asterisk)
Procedure, shortened: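 Male Sprague Dawley rats (~200 g) received 0.1 ml 2% λ-carrageenan subplantar in the right paw; compounds given i.p. at 3, 10 or 20 mg/kg (some p.o.) immediately after. Thermal (Hargreaves) latency, mechanical threshold, paw thickness and volume measured at 0 and 3 h; values are inter-paw differences ([…], ΔForce), volume as % of vehicle.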

[2] = 10 mg/kg i.p., 3 hours after carrageenan, reduction in paw swelling, read-out: Percent Inhibition of Inflammatory Pain Responses, Edema
[3] = 10 mg/kg i.p., 3 hours, mechanical stimulus, read-out: Percent Inhibition of Inflammatory Pain Responses, ΔForce
[4] = 10 mg/kg i.p., 3 hours, thermal stimulus, read-out: Percent Inhibition of Inflammatory Pain Responses, ΔLT

| Structure (SMILES) | Percent inhibition of gene expression, COX-2 (COX-2) | inhibition in vivo at 10 mg/kg [1, 2] | inhibition in vivo at 10 mg/kg [1, 3] | inhibition in vivo at 10 mg/kg [1, 4] | also measured |
| --- | --- | --- | --- | --- | --- |
| CCCCCCC(C)(C)c1cc(O)c2c(c1)OC1C(O)CCCCC21 (stereo not drawn) [Compound C7S-2, 2-(1,1-dimethylheptyl)-5,6,7,8,9,9a-hexahydro-4bH-10-oxa-benzo[α]azulen-4,9-diol] | 26% |  |  |  | reduction of paw swelling ([1]; 5 mg/kg p.o.): 41%; reduction of paw swelling ([1]; 20 mg/kg p.o.): 50%; inhibition in vivo at 3 mg/kg ([1]; 3 hours, mechanical stimulus, read-out: Percent Inhibition of Inflammatory Pain Responses, ΔForce): 66%; inhibition in vivo at 3 mg/kg ([1]; 3 hours, reduction in paw swelling, read-out: Percent Inhibition of Inflammatory Pain Responses, Edema): 56%; inhibition in vivo at 3 mg/kg ([1]; 3 hours, thermal stimulus, read-out: Percent Inhibition of Inflammatory Pain Responses, ΔLT): 66% |
| CCCCCCC(C)(C)c1cc(O)c2c3c(oc2c1)C(=O)CCC3(C)C [Compound C6M-9, 7-(1,1-Dimethylheptyl)-9-hydroxy-1,1-dimethyl-2,3-dihydro-1H-dibenzofuran-4-one] | 50% | 49% | 27% | 75% |  |
| CCCCC(C)(C)c1cc(O)c2c(c1)OC1C2CCC(C)(C)C1O (stereo not shown) [Compound C6S-7, 3-(1,1-dimethylpentyl)-7,7-dimethyl-5a,6,7,8,9,9a-hexahydro-dibenzofuran-1,6-diol] |  |  | 41% | 54% |  |
| CCCCC(C)(C)c1cc(O)c2c(c1)OC1CCCCC21 (stereo not shown) [Compound C6S-3, 3-(1,1-dimethylpentyl)-5a,6,7,8,9,9a-hexahydro-dibenzofuran-1-ol] | 65% | 48% | 49% | 84% |  |
| CCCCCCC(C)(C)c1cc(O)c2c(c1)OC1(C)CCCC21 (stereo not drawn) [Compound C5S-2, 6-(1,1-dimethylheptyl)-8a-methyl-2,3,3a,8a-tetrahydro-1H-8-oxa-cyclo-penta[α]inden-4-ol] | NO (NO indicates that the compound tested did not significantly affect the transcription of the gene assessed and that its activity is comparable to vehicle, within ±20% from this control) |  |  |  | Percent Inhibition of Inflammatory Pain Responses, Edema ([1]; 10 mg/kg i.p., 3 hours after carrageenan, reduction in paw swelling): 48%; Percent Inhibition of Inflammatory Pain Responses, ΔForce ([1]; 10 mg/kg i.p., 3 hours, mechanical stimulus): 8%; Percent Inhibition of Inflammatory Pain Responses, ΔLT ([1]; 10 mg/kg i.p., 3 hours, thermal stimulus): 43% |
| CCCCCCC(C)(C)c1cc(O)c2c(c1)OC1C=CCCC21 (stereo not shown) [Compound C6S-2, 3-(1,1-Dimethylheptyl)-5a,8,9,9a-tetrahydro-dibenzofuran-1-ol] | 61% | 36% | 30% | 58% |  |
| CCCCC(C)(C)c1cc(O)c2c(c1)OC1(C)CCCC21 (stereo not drawn) [Compound C5S-1, 6-(1,1-dimethylpentyl)-8a-methyl-2,3,3a,8a-tetrahydro-1H-8-oxa-cyclopenta[α]inden-4-ol] | 29% |  |  |  |  |
